Values of other authors, collected in patent US20250195401A1, “COSMETIC COMPOSITION OF LIPOSOMES CONTAINING AN EXTRACT OF HAEMATOCOCCUS PLUVIALIS, TETRAHEXYLDECYL ASCORBATE AND ECTOIN” (IMAGE INTERNATIONAL MANUFACTURING, LLC, priority 2023, published 2025).

Settings: 6 h at 190° C.

CC1=N[C@H](C(=O)O)CCN1 [Ectoine, (4S)-2-methyl-1,4,5,6-tetrahydropyrimidine-4-carboxylic acid]
stability at high temperatures: very stable
